Data as given in article PMC7730441, “Acetylcholinesterase and butyrylcholinesterase inhibitory activities of khellactone coumarin derivatives isolated from Peucedanum japonicum Thurnberg” (Scientific Reports, 2020).
Like-named read-outs stand apart in the source and are kept apart here.

Key:
BChE (from equine serum) = molecular target: T1, BChE (from equine serum) (Equus caballus, UniProt P81908); assay: biochemical; conditions: 15 min preincubation; read-out: IC50 (µM) BChE
T1 construct: BChE (from equine serum); purchased Sigma-Aldrich; host or cells: equine serum
T1 sequence (P81908 whole entry): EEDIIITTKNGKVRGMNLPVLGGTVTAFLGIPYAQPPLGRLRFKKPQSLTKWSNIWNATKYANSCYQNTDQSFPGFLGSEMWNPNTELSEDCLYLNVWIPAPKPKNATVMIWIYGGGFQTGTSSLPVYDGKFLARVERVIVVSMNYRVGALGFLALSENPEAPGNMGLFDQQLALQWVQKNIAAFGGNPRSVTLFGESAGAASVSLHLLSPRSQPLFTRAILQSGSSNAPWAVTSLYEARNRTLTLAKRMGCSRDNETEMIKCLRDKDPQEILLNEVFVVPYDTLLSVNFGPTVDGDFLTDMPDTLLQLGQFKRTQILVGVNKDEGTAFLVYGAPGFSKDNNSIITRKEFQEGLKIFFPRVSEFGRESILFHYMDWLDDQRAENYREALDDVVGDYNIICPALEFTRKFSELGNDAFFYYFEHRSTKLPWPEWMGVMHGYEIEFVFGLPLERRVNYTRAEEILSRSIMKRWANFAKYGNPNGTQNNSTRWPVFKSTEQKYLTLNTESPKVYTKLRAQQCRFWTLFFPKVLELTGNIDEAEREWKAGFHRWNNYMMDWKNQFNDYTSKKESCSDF
Experimental: (§1) AChE assays were performed as described by Ellman et al.[41] with slight modifications. […] DTNB was used for color development, caused by reaction between it and thiocholine (a product of AChE). For inhibitory assays, compounds were preincubated with AChE for 15 min prior to ATCI and DTNB addition. BChE activity was assayed using the same method, but BTCI was used instead of ATCI.
(§2) Inhibitions of the activities of AChE, BChE, MAO-A, and MAO-B by the 15 compounds were investigated at an inhibitor concentration of 10 µM. IC50 values were also determined. […] The inhibition types and Ki values were determined using Lineweaver–Burk Plots and secondary plots.

[1] = molecular target: T2, AChE (Type VI-S; from Electrophorus electricus) (Electrophorus electricus, UniProt O42275); assay: biochemical; conditions: for IC50 / remaining activity at 10 µM: 15 min preincubation; for IC50: read-out: IC50 (µM) AChE; for remaining activity at 10 µM: read-out: Residual activity at 10 µM (%) AChE, inhibitor 10 µM; for SI = IC50 of AChE/ IC50 of BChE: selectivity index
T2 construct: AChE (Type VI-S; from Electrophorus electricus); purchased Sigma-Aldrich Type VI-S (catalogue number not given)
T2 sequence (O42275 24-633): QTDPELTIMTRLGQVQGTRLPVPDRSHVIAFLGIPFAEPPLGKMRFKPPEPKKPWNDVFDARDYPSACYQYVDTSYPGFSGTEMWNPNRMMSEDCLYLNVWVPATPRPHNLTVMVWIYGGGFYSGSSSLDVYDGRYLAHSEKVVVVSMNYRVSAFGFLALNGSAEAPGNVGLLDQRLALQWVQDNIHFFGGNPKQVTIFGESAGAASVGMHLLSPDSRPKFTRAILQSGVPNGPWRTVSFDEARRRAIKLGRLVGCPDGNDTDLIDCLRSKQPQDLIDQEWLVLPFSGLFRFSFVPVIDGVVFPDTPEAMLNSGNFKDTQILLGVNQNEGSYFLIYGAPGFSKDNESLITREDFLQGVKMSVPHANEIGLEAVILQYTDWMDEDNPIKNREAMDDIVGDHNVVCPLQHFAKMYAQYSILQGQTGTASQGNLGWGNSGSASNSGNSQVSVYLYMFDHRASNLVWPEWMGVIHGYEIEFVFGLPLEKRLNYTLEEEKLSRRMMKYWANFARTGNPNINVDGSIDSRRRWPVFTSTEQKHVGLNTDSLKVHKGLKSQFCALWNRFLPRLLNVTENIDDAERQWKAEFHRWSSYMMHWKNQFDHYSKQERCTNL
Experimental: as §1, §2

recombinant human MAO-B = molecular target: T3, recombinant human MAO-B (Homo sapiens, UniProt P27338); assay: MAO-B inhibition assay (benzylamine); type: biochemical; conditions: inhibitor 10 µM; read-out: Residual activity at 10 µM (%) MAO-B
T3 construct: purchased Sigma-Aldrich
T3 sequence (P27338 1-520): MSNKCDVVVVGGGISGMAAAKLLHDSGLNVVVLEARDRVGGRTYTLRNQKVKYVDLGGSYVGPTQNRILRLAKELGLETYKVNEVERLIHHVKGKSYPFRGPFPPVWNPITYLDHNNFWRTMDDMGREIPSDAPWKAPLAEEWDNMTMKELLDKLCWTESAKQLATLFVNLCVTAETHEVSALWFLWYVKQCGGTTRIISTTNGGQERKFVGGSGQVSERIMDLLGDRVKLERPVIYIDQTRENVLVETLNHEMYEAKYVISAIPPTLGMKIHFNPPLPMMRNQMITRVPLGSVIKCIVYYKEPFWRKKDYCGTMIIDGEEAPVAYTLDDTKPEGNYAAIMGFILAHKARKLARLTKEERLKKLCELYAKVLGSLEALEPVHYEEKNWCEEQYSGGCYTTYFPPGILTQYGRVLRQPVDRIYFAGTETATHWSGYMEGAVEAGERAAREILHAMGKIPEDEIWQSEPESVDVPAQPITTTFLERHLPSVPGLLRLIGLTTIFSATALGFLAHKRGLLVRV
Experimental: as §1, §2

recombinant human MAO-A = molecular target: T4, recombinant human MAO-A (Homo sapiens, UniProt P21397); assay: MAO-A inhibition assay (kynuramine); type: biochemical; conditions: inhibitor 10 µM; read-out: Residual activity at 10 µM (%) MAO-A
T4 construct: purchased Sigma-Aldrich
T4 sequence (P21397 1-527): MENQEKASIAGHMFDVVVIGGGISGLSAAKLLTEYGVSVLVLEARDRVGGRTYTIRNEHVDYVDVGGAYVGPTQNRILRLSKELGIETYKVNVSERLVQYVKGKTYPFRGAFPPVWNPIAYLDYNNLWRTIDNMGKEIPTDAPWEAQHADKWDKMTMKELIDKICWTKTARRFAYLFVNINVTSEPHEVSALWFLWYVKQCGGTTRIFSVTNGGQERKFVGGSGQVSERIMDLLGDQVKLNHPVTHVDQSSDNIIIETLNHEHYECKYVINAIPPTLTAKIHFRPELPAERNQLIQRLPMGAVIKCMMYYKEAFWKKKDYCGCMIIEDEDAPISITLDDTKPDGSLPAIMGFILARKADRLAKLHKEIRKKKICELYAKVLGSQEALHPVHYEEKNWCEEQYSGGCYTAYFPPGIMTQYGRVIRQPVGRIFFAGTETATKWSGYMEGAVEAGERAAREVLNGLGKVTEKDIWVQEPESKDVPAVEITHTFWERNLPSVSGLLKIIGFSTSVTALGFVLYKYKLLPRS
Experimental: as §1, §2

AChE = conditions: cited from earlier work
BChE = conditions: cited from earlier work
[2] = flavonoids from Agrimonia pilosa

Molecule | IC50 (BChE (from equine serum)) | IC50 [1] | remaining activity at 10 µM [1] | remaining activity at 10 µM (recombinant human MAO-B) | remaining activity at 10 µM (recombinant human MAO-A) | also measured
C/C=C(/C)C(=O)OC1c2c(ccc3ccc(=O)oc23)OC(C)(C)C1OC(=O)CC(C)C (stereo not drawn) [PJ11, 3′-isovaleryl-4′-angeloylkhellactone] | > 40 µM | > 40 µM | 88.1 ± 1.35% | 89.1 ± 1.36% | 75.4 ± 0.3% | 
COc1cc2ccc(=O)oc2cc1O [scopoletin] |  |  |  |  |  | IC50 (AChE; from Vaccinium oldhami Miquel): 52 µM
C[C@@H]1O[C@@H](O[C@@H]2[C@@H](O)[C@H](OCCc3ccc(O)c(O)c3)O[C@H](COC(=O)/C=C/c3ccc(O)c(O)c3)[C@H]2O)[C@H](O)[C@H](O)[C@H]1O [isoacteoside] |  |  |  |  |  | IC50 (BChE; from H. procumbens): 29.7 µM
O=C(/C=C/c1ccc(O)cc1)OC[C@H]1O[C@@H](Oc2c(-c3ccc(O)cc3)oc3cc(O)cc(O)c3c2=O)[C@H](O)[C@@H](O)[C@@H]1O [tiliroside] |  |  |  |  |  | IC50 (AChE; [2]): 23.5 µM
CCC(C)C(=O)O[C@@H]1c2c(ccc3ccc(=O)oc23)OC(C)(C)[C@@H]1OC(C)=O (stereo partly drawn) [hyuganin C] |  |  |  |  |  | IC50 (BChE; from Mutellina purpurea): 38.9 µM
CC(=O)O[C@@H]1[C@H](OC(=O)C=C(C)C)c2c(ccc3ccc(=O)oc23)OC1(C)C [PJ1, Isosamidin] | > 40 µM | > 40 µM | 92.1 ± 1.7% | 85 ± 0.57% | 86 ± 5.47% | 
corenone B |  |  |  |  |  | IC50 (BChE; converted from μg/mL, from Niphogeton dissecta): 49.5 µM; IC50 BChE (BChE; from Niphogeton dissecta): 10.9 µg/mL
O=c1ccc2cc(O)c(O)cc2o1 [esculetin] |  |  |  |  |  | IC50 (BChE): 9.29 µM; IC50 (AChE; from Artemisia capillaris): 6.13 µM
C/C=C(/C)C(=O)O[C@H]1[C@H](O)c2cc3ccc(=O)oc3cc2OC1(C)C [4′-hydroxy Pd–C-III] |  |  |  |  |  | IC50 (BChE; from A. decursiva): 5.78 µM; IC50 (AChE; from Angelica decursiva): 1.09 µM
COc1ccc(CCCc2ccc(O)cc2)c(O)c1 [broussonin A] |  |  |  |  |  | IC50 (BChE; from Anemarrhena asphodeloidesa): 7.5 µM
CC(C)CC(=O)O[C@@H]1c2c(ccc3ccc(=O)oc23)OC(C)(C)[C@@H]1OC(=O)CC(C)C [PJ14, 3′,4′-diisovalerylkhellactone] | > 40 µM | 28.1 ± 0.33 µM | 51.5 ± 4.5% | 66.1 ± 5.23% | 77 ± 5.4% | SI = IC50 of AChE/ IC50 of BChE [1]: < 0.70
CC(C)=CC(=O)O[C@@H]1c2c(ccc3ccc(=O)oc23)OC(C)(C)[C@@H]1OC(=O)C=C(C)C [PJ4, 3′,4′-disenecioylkhellactone] | 10.7 µM | 21.3 ± 7.69 µM | 85.4 ± 7.52% | 95.6 ± 4.8% | 100.3 ± 0.39% | SI = IC50 of AChE/ IC50 of BChE [1]: 1.99
CC(C)=CC(=O)O[C@@H]1c2c(ccc3ccc(=O)oc23)OC(C)(C)[C@@H]1OC(=O)CC(C)C [PJ9, 3′-isovaleryl-4′-senecioylkhellactone] | 12.5 ± 2.82 µM | 36.1 ± 0.66 µM | 86.9 ± 9.92% | 75 ± 8.42% | 80.6 ± 5.02% | SI = IC50 of AChE/ IC50 of BChE [1]: 2.89
CC1(C)Oc2cc3oc(=O)ccc3cc2C[C@@H]1O [decursinol] |  |  |  |  |  | IC50 (AChE; from Angelica gigas Nakai): 28 µM
COc1ccc2c(c1OC)CN1CCc3cc4c(cc3C1=C2)OCO4 [dihydroberberine] |  |  |  |  |  | IC50 (AChE): 1.18 µM
